Test results: publication PMC3374801, “Artemisinin Inhibits Chloroplast Electron Transport Activity: Mode of Action” (PLoS ONE, 2012)
“Also recorded” adds a separate entry of the source.

How the values were obtained:
PSI = PSI (DCIPH2 to MV) catalyzed electron flow in thylakoids isolated from leaves of sprayed plants; format: in vivo, Rice (Oryza sativa var. Safari); conditions: thylakoids of treated rice leaves
Protocol: (§1) Twenty one day old rice plants were sprayed with artemisinin twice at a 24 h interval. One mililiter of 74.4 mM artemisinin in 1% (V/V) DMSO, 0.1% (V/V) TWEEN-20 was diluted 100 fold with water and used to treat 40 plants (∼1.86 µmol of artemisinin/plant). Control plants were sprayed with the same solution without artemisinin. The 4th (quaternary) leaf was harvested 20 h after the 2nd spray and used for all experiments. The individual effect of the surfactant and DMSO-plus-surfactant was first evaluated against water control. […]
(§2) Thylakoids were isolated from spinach and rice leaves following with some modifications. […] Chlorophyll concentration in methanolic extract was measured spectrophotometrically.
(§3) Photosystem II, PSI and whole chain (PSII plus PSI) catalyzed electron transport activities were measured as oxygen (O2) evolution or uptake in a Clarke type O2 electrode assembly (Hansatech) at 22±1°C using site-specific artificial electron acceptors, donors, and inhibitors, [26]. […] Phosphorylating electron transport was measured with addition of 1 mM ADP and 5 mM K2HPO4 (iP) to basal electron transport components (25 mM hepes-NaOH (pH-7.5), 100 mM sucrose, 5 mM MgCl2 and 20 µg Chl. ml^−1). […]

[1] = test system: whole chain (H2O to FeCN) electron flow in thylakoids; assay: Whole chain (H2O to FeCN) electron flow in thylakoids isolated from leaves of sprayed plants; format: in vivo, Rice (Oryza sativa var. Safari)
Protocol: as §1, §2, §3

PSII = biological target: T1, PSII (Oryza sativa subsp. japonica, UniProt P0C434); assay: PSII (H2O to pBQ) catalyzed electron flow in thylakoids isolated from leaves of sprayed plants; format: in vivo, Rice (Oryza sativa var. Safari); conditions: thylakoids of treated rice leaves
T1 construct: Thylakoids were isolated from spinach and rice leaves; from tissue; host or cells: thylakoid membranes from the 4th leaf of 21-day-old rice plants
Protocol: as §1, §2, §3

[2] = test system: lettuce and annual wormwood; set-up: method as in earlier work; conditions: 33 µM; cited from earlier work
Chl. pigment synthesis = assay: Chlorophyll quantification in sprayed plants; format: in vivo, Rice (Oryza sativa var. Safari); conditions: treated versus control leaves
Protocol: Twenty one day old rice plants were sprayed with artemisinin twice at a 24 h interval. One mililiter of 74.4 mM artemisinin in 1% (V/V) DMSO, 0.1% (V/V) TWEEN-20 was diluted 100 fold with water and used to treat 40 plants (∼1.86 µmol of artemisinin/plant). Control plants were sprayed with the same solution without artemisinin. The 4th (quaternary) leaf was harvested 20 h after the 2nd spray and used for all experiments. The individual effect of the surfactant and DMSO-plus-surfactant was first evaluated against water control. Since no effect was obtained with these variations, we have routinely used the DMSO plus the surfactant sprayed leaves as control against artemisinin treated leaves and in figures the same has been depicted as DMSO (control). Thylakoids were isolated from spinach and rice leaves following with some modifications. Leaves were homogenized in cold grinding buffer [50 mM tricine-NaOH (pH 7.5), 400 mM sucrose, 5 mM MgCl2 and 5 mM KCl]. The homogenate was filtered through Miracloth and the filtrate was centrifuged at 5000×g for 5 min. […] Chlorophyll concentration in methanolic extract was measured spectrophotometrically. Supplementary file pone.0038942.s002.doc: Figure S2 Chlorophyll quantification in plants sprayed with DMSO and artemisinin. […]

[3] = test system: PQH2 pool (PSII catalyzed electron flow from water to DQ); assay: Kinetics of DQ supported electron transport rate in thylakoids from treated leaves; format: in vivo; conditions: control versus treated thylakoids
Protocol: as §1, §2, §3

rice leaves [4] = assay: Slow Chl. a fluorescence kinetics in leaves of artemisinin sprayed plants; format: in vivo, Rice (Oryza sativa var. Safari); conditions: dark adapted 20 min
Protocol: (§4) Twenty one day old rice plants were sprayed with artemisinin twice at a 24 h interval. One mililiter of 74.4 mM artemisinin in 1% (V/V) DMSO, 0.1% (V/V) TWEEN-20 was diluted 100 fold with water and used to treat 40 plants (∼1.86 µmol of artemisinin/plant). Control plants were sprayed with the same solution without artemisinin. The 4th (quaternary) leaf was harvested 20 h after the 2nd spray and used for all experiments. The individual effect of the surfactant and DMSO-plus-surfactant was first evaluated against water control. Since no effect was obtained with these variations, we have routinely used the DMSO plus the surfactant sprayed leaves as control against artemisinin treated leaves and in figures the same has been depicted as DMSO (control). The room temperature Chl. a fluorescence technique was used to study the photosynthetic activity in intact leaf samples. The fast Chl. a transients (O-J-I-P) in millisecond (ms) time span was studied with plant efficiency analyzer (Handy PEA fluorimeter) following Strasser et al., while the relative thylakoid electron transport, membrane energization and carbon fixation activities were evaluated from slow fluorescence transients, obtained using FMS2 instrument (Hansatech) as per the detail outlined in Baker. The readouts from Handy PEA were analyzed using biolyzerhp3 software.

[5] = test system: lettuce, redroot pigweed, pitted morning glory, annual wormwood and common purslane; set-up: method as in earlier work; conditions: 33 µM; cited from earlier work
yeast cells = test system: yeast cells; set-up: method as in PMID 16170412; conditions: 80 µM; cited from earlier work
rice leaves [6] = assay: Fast Chl. a (O-J-I-P) fluorescence transient in leaves of artemisinin sprayed plants; format: in vivo, Rice (Oryza sativa var. Safari)
Protocol: as §4

spinach thylakoids = assay: In vitro effect of artemisinin on FeCN supported O2 evolution (electron transport) of isolated thylakoids; format: biochemical, spinach (Beta palonga); conditions: for artemisinin-mediated inhibition of electron transport: 744 µM
Protocol: Thylakoids were isolated from spinach and rice leaves following with some modifications. Leaves were homogenized in cold grinding buffer [50 mM tricine-NaOH (pH 7.5), 400 mM sucrose, 5 mM MgCl2 and 5 mM KCl]. The homogenate was filtered through Miracloth and the filtrate was centrifuged at 5000×g for 5 min. The chloroplast pellet was washed in 5 mM tricine-NaOH (pH 7.5) buffer containing, 400 mM sucrose and 2 mM MgCl2 and centrifuged at 300×g for 1 min. The supernatant was re-centrifuged at 5000×g for 5 min. The pellet (thylakoids) was finally taken up in a minimal volume of suspending buffer [20 mM tricine-NaOH (pH 7.5), 100 mM sucrose and 5 mM MgCl2]. Chlorophyll concentration in methanolic extract was measured spectrophotometrically.
Photosystem II, PSI and whole chain (PSII plus PSI) catalyzed electron transport activities were measured as oxygen (O2) evolution or uptake in a Clarke type O2 electrode assembly (Hansatech) at 22±1°C using site-specific artificial electron acceptors, donors, and inhibitors, [26]. The light was rate-saturating (500 µE m^−2 s^−1). Phosphorylating electron transport was measured with addition of 1 mM ADP and 5 mM K2HPO4 (iP) to basal electron transport components (25 mM hepes-NaOH (pH-7.5), 100 mM sucrose, 5 mM MgCl2 and 20 µg Chl. ml^−1). NH4Cl and GS were used at a final concentration of 5 mM and 10 µM respectively as and when required. The whole chain electron flow was assayed in presence of 2 mM FeCN as terminal electron acceptor of PSI. pBQ and DQ (400 µM) were used to measure PSII catalyzed electron flow. To measure PSI catalyzed electron flow, DCIPH2 (1 mM DCIP plus 2 mM ascorbate) was used as electron donor to cytochrome b6/f region and 1 mM MV as transient electron acceptor. The PSI reaction mixture additionally contained 2 mM sodium azide (catalase inhibitor) and 10 µM DCMU (PSII inhibitor).

rice plant = assay: Long term effect of artemisinin administration to rice plant; format: in vivo; conditions: 5 consecutive alternate day sprays
Protocol: Supplementary file pone.0038942.s005.doc: Figure S5 Long term effect of artemisinin administration to rice plant. The plants were treated with artemisinin for 5 consecutive alternate day sprays. […] (DOC) Click here for additional data file.

Compound: C[C@@H]1CC[C@H]2[C@@H](C)C(=O)O[C@@H]3O[C@@]4(C)CC[C@@H]1[C@]32OO4 [Artemisinin]
- reduction of PSI catalyzed electron flow from DCIPH2 to MV as compared to control (PSI): 10–15%
- reduction of FeCN supported whole chain electron transport rate as compared to control ([1]; thylakoids of treated rice leaves (~1.86 µmol/plant)): 80–85%
- inhibitory affect in loosely coupled (basal) versus chemically uncoupled (NH4Cl or GS) thylakoids ([1]; thylakoids of treated rice leaves, FeCN as acceptor): persistent to a comparable extent
- reduction in rate of pBQ supported PSII catalyzed electron transport (PSII): 65–70%
- effect on germination [2]: inhibited the germination
- effect on Chl. pigment synthesis (Chl. concentration) (Chl. pigment synthesis): no affect on the Chl. pigment synthesis
- DQ supported electron transport rate, times higher in the absence of artemisinin [3]: 5 times
- Rfd (fluorescence decline ratio from 'p' to 't' level) (rice leaves [4]): 0.08±0.006
- effect on growth of roots and shoots [5]: inhibited
- effect on growth of yeast cells (yeast cells): arrests the growth
- effect on electron flow from water to QA (rice leaves [6]; from DCMU (20 µM) sensitivity of the fluorescence induction curves): insensitive
- effect on O-J-I-P fluorescence transient (rice leaves [6]; leaves of sprayed rice plants): disappearance of the FI – FP transient
- inhibition of control activity (FeCN supported electron transport / O2 evolution) (spinach thylakoids; 744 µM artemisinin, basal (loosely coupled) thylakoids, relative to DMSO control): 65–70%
- artemisinin-mediated inhibition of electron transport (spinach thylakoids; phosphorylating condition (plus ADP and iP)): 45–50%
- artemisinin-mediated inhibition of electron transport (spinach thylakoids; phosphorylating condition, in presence of NH4Cl): 15–20%
- artemisinin-mediated inhibition of electron transport (spinach thylakoids; phosphorylating condition, with GS): 20–25%
- long term effect on plants (rice plant): death of plant; also recorded: complete death of the plants
